Assay [1] deals with T1, human recombinant adrenergic α2B receptor (Homo sapiens, UniProt P18089).
T1 construct: expressed in transfected cells; host or cells: CHO-K1
T1 sequence (P18089 1-450): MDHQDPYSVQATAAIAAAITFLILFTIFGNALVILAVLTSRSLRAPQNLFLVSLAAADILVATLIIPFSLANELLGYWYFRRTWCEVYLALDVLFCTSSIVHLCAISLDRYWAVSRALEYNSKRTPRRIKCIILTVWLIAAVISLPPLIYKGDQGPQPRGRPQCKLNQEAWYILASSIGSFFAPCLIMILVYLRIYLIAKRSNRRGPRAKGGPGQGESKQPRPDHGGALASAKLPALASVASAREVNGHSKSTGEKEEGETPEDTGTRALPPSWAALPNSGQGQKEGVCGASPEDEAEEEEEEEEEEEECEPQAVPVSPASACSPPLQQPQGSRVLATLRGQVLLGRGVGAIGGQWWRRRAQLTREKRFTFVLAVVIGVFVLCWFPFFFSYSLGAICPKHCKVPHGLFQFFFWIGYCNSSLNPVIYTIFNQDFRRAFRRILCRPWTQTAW
The assay is described as follows: Radioligand binding, adrenergic α2B ([3H]Rauwolscine). To be noted: for Percentage inhibition of ligand binding, Adrenergic α2B / Percentage inhibition of ligand binding, Adrenergic α2B (0.03 μM): compound at 0.03 μM, 0.03 µM. An outline of the steps:
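Membranes from CHO-K1 cells expressing human recombinant α2B, in 50 mM Tris-HCl pH 7.4, 12.5 mM MgCl2, 1 mM EDTA, 0.2% BSA, incubated with compound and 2.5 nM [3H]Rauwolscine, 60 min, 25 °C.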

In assay [2] the target is T2, human recombinant adrenergic α2A receptor (Homo sapiens, UniProt P08913).
T2 construct: expressed in transfected cells; host or cells: insect Sf9 cells
T2 sequence (P08913 1-465): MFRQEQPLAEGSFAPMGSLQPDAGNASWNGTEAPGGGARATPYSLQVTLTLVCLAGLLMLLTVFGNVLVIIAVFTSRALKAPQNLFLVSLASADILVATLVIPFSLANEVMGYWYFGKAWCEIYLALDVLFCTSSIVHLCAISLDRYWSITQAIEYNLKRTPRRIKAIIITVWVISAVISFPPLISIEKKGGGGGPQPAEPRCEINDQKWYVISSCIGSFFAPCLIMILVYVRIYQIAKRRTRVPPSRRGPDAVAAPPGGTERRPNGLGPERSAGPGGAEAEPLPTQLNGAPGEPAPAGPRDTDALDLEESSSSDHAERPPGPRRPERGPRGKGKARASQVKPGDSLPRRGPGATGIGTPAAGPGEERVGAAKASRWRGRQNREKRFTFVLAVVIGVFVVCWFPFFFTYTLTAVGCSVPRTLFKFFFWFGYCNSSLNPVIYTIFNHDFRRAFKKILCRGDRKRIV
The assay is described as follows: Radioligand binding, adrenergic α2A ([3H]MK-912). To be noted: for Percentage inhibition of ligand binding, Adrenergic α2A / Percentage inhibition of ligand binding, Adrenergic α2A (0.1 μM): 0.1 µM. The method in brief:
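Sf9-expressed receptor was incubated with compound for 60 min at 25 °C in modified Tris-HCl buffer, pH 7.4. Nonspecific binding was taken as that remaining with 10 μM WB-4101.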

Assay [3] concerns the target T3, rat adrenergic α1B receptor (Rattus norvegicus, UniProt P15823).
T3 construct: rat adrenergic α1B receptor obtained from Wistar Rat liver; from tissue; host or cells: Wistar rat liver
T3 sequence (P15823 1-515): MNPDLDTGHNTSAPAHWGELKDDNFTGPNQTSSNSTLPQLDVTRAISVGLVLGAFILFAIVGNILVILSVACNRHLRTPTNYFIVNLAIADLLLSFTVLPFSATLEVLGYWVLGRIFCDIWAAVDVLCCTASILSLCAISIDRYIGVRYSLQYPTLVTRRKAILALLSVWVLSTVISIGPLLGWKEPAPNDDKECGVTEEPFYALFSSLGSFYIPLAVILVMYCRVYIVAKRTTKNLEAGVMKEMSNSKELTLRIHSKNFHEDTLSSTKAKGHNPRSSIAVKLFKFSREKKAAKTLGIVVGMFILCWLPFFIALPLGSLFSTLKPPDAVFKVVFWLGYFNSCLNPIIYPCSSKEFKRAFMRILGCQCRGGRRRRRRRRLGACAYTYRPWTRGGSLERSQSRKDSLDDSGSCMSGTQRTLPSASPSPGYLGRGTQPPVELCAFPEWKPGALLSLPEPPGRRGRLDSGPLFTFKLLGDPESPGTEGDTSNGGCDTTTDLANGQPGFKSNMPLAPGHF
In words: Radioligand binding, adrenergic α1B ([3H]Prazosin). The following applies: for Percentage inhibition of ligand binding, Adrenergic α1B / Percentage inhibition of ligand binding, Adrenergic α1B (0.1 μM): 0.1 µM. An outline of the steps:
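Incubation ran 60 min at 25 °C in Tris-HCl buffer (50 mM, pH 7.4, 0.5 mM EDTA) with Wistar rat liver α1B receptor. 10 μM phentolamine set non-specific binding.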

[4] abbreviates: read-out: Percentage inhibition of ligand binding, Adrenergic α2B (0.03 μM), compound at 0.03 μM, [3H]Rauwolscine, repeat datapoints each shown.
The mark [5] stands for this setting: read-out: Percentage inhibition of ligand binding, Adrenergic α2A (0.1 μM), compound at 0.1 μM, [3H]MK-912, repeat datapoints each shown.
Where [6] appears, read: read-out: Percentage inhibition of ligand binding, Adrenergic α1B (0.1 μM), compound at 0.1 μM, [3H]Prazosin, repeat datapoints each shown.
[7] abbreviates: [3H]Rauwolscine, repeat assays, each datapoint shown.
The mark [8] stands for this setting: compound at 0.1 μM, [3H]MK-912, repeat assays, each datapoint shown.
Setting [9] is: compound at 0.1 μM, [3H]Prazosin, repeat assays, each datapoint shown.
The mark [10] stands for this setting: [3H]Rauwolscine, repeat datapoints each shown.
The mark [11] stands for this setting: compound at 0.1 μM, [3H]MK-912, repeat datapoints each shown.
Setting [12] is: compound at 0.1 μM, [3H]Prazosin, repeat datapoints each shown.
The mark [13] stands for this setting: 0.03 μM compound, read-out: Percentage inhibition of ligand binding, Adrenergic α2B.
The mark [14] stands for this setting: 0.1 μM compound, read-out: Percentage inhibition of ligand binding, Adrenergic α2A.
Where [15] appears, read: 0.1 μM compound, read-out: Percentage inhibition of ligand binding, Adrenergic α1B.

Each structure is given as a SMILES string. Where two headings read alike, the source gives them in different places.

What is called inhibition is the change of the read-out against control, counted positive when it falls.

As to `Cc1ccc(CCn2c3c(c4c(Br)ccc(Br)c42)CN(C)CC3)cn1` [II-251], the inhibition at 0.03 µM in assay [1] (setting [4]) was -4%. Also, the inhibition at 0.1 µM in assay [2] (setting [5]) was 81%; in assay [3] (setting [6]) it was -7%.
`Cc1ccc2c(c1)c1c(n2CC(O)c2cccnc2)CN(C)CC1` (stereo not drawn) [compound 43, 2-(2,6-dimethyl-1,2,3,4-tetrahydro-β-carbolin-9-yl)-1-pyridin-3-yl-ethanol]: the “Percentage inhibition of ligand binding, Adrenergic α2B” value in assay [1] (setting [7]) is recorded as 24%. For the same molecule, in assay [2] (setting [8]), the “Percentage inhibition of ligand binding, Adrenergic α2A” value is −1%. In assay [3] (setting [9]), the “Percentage inhibition of ligand binding, Adrenergic α1B” value came to 21%.
Regarding `Cc1ccc2c(c1)c1c(n2CC(O)c2cnn(C)c2)CCN(C)C1` (stereo not drawn) [131a, 2-(1,2,3,4-tetrahydro-2,8-dimethylpyrido[4,3-b]indol-5-yl)-1-(1-methyl-1H-pyrazol-4-yl)ethanol], the inhibition at 0.03 µM in assay [1] (setting [4]) was found to be 30%. In addition, the inhibition at 0.1 µM in assay [2] (setting [5]) is 10%; in assay [3] (setting [6]) it was 24%.
For `CC(O)(Cn1c2c(c3cc(Cl)cnc31)C1CCCN1CC2)c1cccnc1` (single isomer, unassigned) [IV-210d], the “Percentage inhibition of ligand binding, Adrenergic α2B (0.03 μM)” value (from here on “Percentage inhibition … (0.03 μM)”) in assay [1] (setting [10]) is listed as 87%. Further, in assay [2] (setting [11]), the “Percentage inhibition of ligand binding, Adrenergic α2A (0.1 μM)” value is listed as 13%. In addition, the “Percentage inhibition of ligand binding, Adrenergic α1B (0.1 μM)” value in assay [3] (setting [12]) worked out at 19%.
As to `Cc1ccc2c(c1)c1c(n2CC(CN)c2ccncc2)CCN(C)C1` (stereo not drawn) [II-221], the inhibition at 0.03 µM in assay [1] (setting [4]) came out at 0%. For the same molecule, the inhibition at 0.1 µM is 10% in assay [2] (setting [5]) and -1% in assay [3] (setting [6]).
On to `Cc1ccc(CCn2c3c(c4c(Cl)ccc(Cl)c42)CCN(C)CC3)cn1` [II-246, 7,10-dichloro-1,2,3,4,5,6-hexahydro-3-methyl-6-(2-(6-methylpyridin-3-yl)ethyl)azepino [4,5-b]indole], for which the inhibition at 0.03 µM in assay [1] (setting [4]) is 5%. Further, the inhibition at 0.1 µM in assay [2] (setting [5]) was 47%; in assay [3] (setting [6]), -2%.
As to `Cc1ccc2c(c1)c1c(n2CC(N=[N+]=[N-])c2ccncc2)CCN(C)C1` (racemic) [V-1b, 5-(2-azido-2-(pyridin-4-yl)ethyl)-2,3,4,5-tetrahydro-2,8-dimethyl-1H-pyrido[4,3-b]indole], the “Percentage inhibition … (0.03 μM)” value in assay [1] (setting [10]) was determined as 102%. In addition, the “Percentage inhibition of ligand binding, Adrenergic α2A (0.1 μM)” value in assay [2] (setting [11]) was found to be 29%. For the same molecule, the “Percentage inhibition of ligand binding, Adrenergic α1B (0.1 μM)” value in assay [3] (setting [12]) is listed as 57%.
Turning to `Cc1cnc2c(c1)c1c(n2CC(O)c2ccncc2)CCN2CCCC12` (single isomer, unassigned) [IV-209d, 2-(9-Methyl-1,2,3,4,5,10c-hexahydro-3a,6,7-triaza-cyclopenta[c]fluoren-6-yl)-1-pyridin-4-yl-ethanol], the “Percentage inhibition … (0.03 μM)” value in assay [1] (setting [10]) worked out at 79%. In assay [2] (setting [11]), the “Percentage inhibition of ligand binding, Adrenergic α2A (0.1 μM)” value came to 8%. Besides, the “Percentage inhibition of ligand binding, Adrenergic α1B (0.1 μM)” value in assay [3] (setting [12]) is 54%.
For `Cc1ccc2c(c1)c1c(n2CC(O)c2cc[nH]c(=O)c2)CCN2CCCC12` (single isomer, unassigned) [II-132a, 4-(2-(2,3,5,6-tetrahydro-10-methyl-1H-indolizino[7,8-b]indol-7(11cH)-yl)-1-hydroxyethyl)pyridin-2(1H)-one], in that order: 40%, 8% and 33%.
In the case of `Cc1ccc2c(c1)c1c(n2CC(O)c2ccc(C)nc2)CCN2CCCC12` (single isomer, unassigned) [198b, 2-(9-methyl-1,2,3,4,5,10c-hexahydro-3a,6-diaza-cyclopenta[c]fluoren-6-yl)-1-(6-methyl-pyridin-3-yl)-ethanol], the “Percentage inhibition … (0.03 μM)” value in assay [1] (setting [10]) is listed as 103%. Also, the “Percentage inhibition of ligand binding, Adrenergic α2A (0.1 μM)” value in assay [2] (setting [11]) is recorded as 44%. Further, the “Percentage inhibition of ligand binding, Adrenergic α1B (0.1 μM)” value in assay [3] (setting [12]) was 84%.
Turning to `CCC(O)(Cn1c2c(c3cc(C)ccc31)CN(C)CC2)c1ccncc1` (stereo not drawn) [35a], the inhibition at 0.1 µM in assay [1] (compound at 0.1 μM, [3H]Rauwolscine, repeat assays, each datapoint shown, read-out: Percentage inhibition of ligand binding, Adrenergic α2B) worked out at 62%; in assay [2] (compound at 0.1 μM, [3H]MK-912, repeat assays, each datapoint shown, read-out: Percentage inhibition of ligand binding, Adrenergic α2A), 20%; in assay [3] (compound at 0.1 μM, [3H]Prazosin, repeat assays, each datapoint shown, read-out: Percentage inhibition of ligand binding, Adrenergic α1B), 9%.
`CC(O)(Cn1c2c(c3cc(Cl)cnc31)C1CCCN1CC2)c1cccnc1` (single isomer, unassigned) [IV-210c]: the “Percentage inhibition … (0.03 μM)” value in assay [1] (setting [10]) worked out at 10%. Also, the “Percentage inhibition of ligand binding, Adrenergic α2A (0.1 μM)” value in assay [2] (setting [11]) amounted to 1%. Also, the “Percentage inhibition of ligand binding, Adrenergic α1B (0.1 μM)” value in assay [3] (setting [12]) was −4%.
As for `CN1CCc2c(n(CC(O)c3ccncc3)c3ccc(Cl)cc23)CC1` (single isomer, unassigned) [15a, 2-(9-chloro-3-methyl-2,3,4,5-tetrahydroazepino[4,5-b]indol-6(1H)-yl)-1-(pyridin-4-yl)ethanol], the “Percentage inhibition of ligand binding, Adrenergic α2B” value in assay [1] (setting [7]) is recorded as 65%. Further, the “Percentage inhibition of ligand binding, Adrenergic α2A” value in assay [2] (setting [8]) was 6%. Further, in assay [3] (setting [9]), the “Percentage inhibition of ligand binding, Adrenergic α1B” value is 81%.
For `Cc1ccc2c(c1)c1c(n2CC(NC2CCCC2)c2ccncc2)CCN(C)C1` (stereo not drawn) [II-9, cyclopentyl-[2-(2,8-dimethyl-1,2,3,4-tetrahydro-pyrido[4,3-b]indol-5-yl)-1-pyridin-4-yl-ethyl]-amine], in assay [1] (setting [13]), the inhibition at 0.03 µM came to 78%. Moreover, the values for the inhibition at 0.1 µM in assay [2] (setting [14]) and in assay [3] (setting [15]) were 7% and 30%, respectively.
The matching figures for `CN1CCc2c(c3cc(OC(F)(F)F)ccc3n2CC(O)c2ccncc2)C1` (stereo not drawn) [II-67, 2-(2-methyl-8-trifluoromethoxy-1,2,3,4-tetrahydro-pyrido[4,3-b]indol-5-yl)-1-pyridin-4-yl-ethanol]: 43%, -11% and 7%.
As for `Cc1ccc2c(c1)c1c(n2CC(O)c2ccc(C#N)nc2)CCN(C)C1` (single isomer, unassigned) [140b, 5-[2-(2,8-dimethyl-1,2,3,4-tetrahydro-pyrido[4,3-b]indol-5-yl)-1-hydroxy-ethyl]-pyridine-2-carbonitrile], in assay [1] (setting [10]), the “Percentage inhibition … (0.03 μM)” value is reported as 52%. The “Percentage inhibition of ligand binding, Adrenergic α2A (0.1 μM)” value in assay [2] (setting [11]) came to 3%. For the same molecule, in assay [3] (setting [12]), the “Percentage inhibition of ligand binding, Adrenergic α1B (0.1 μM)” value is on record as 18%.

The values above are taken from US8791132B2, “Compounds and methods for treatment of hypertension” (Medivation Technologies, Inc., priority 2011, dated 2014).
